Laboratory results published in article PMC12032302, “A20 attenuates oxidized self-DNA-mediated inflammation in acute kidney injury” (Signal Transduction and Targeted Therapy, 2025).

Tests used:
patients = details: first course of cisplatin treatment; cited from earlier work
From the text: Acute kidney injury (AKI) is a life-threatening condition characterized by a rapid loss of renal function, leading to high mortality and morbidity.[1],[2] Approximately 13% of patients received the first course of cisplatin treatment developed AKI.[2],[3] Despite various initial triggers, the pathophysiology of AKI often involves common pathogenic denominators, such as cell death, tissue injury, and drastic inflammation.[4] Several types of cell death have been recently described in AKI, and multiple strategies targeting cell death have been reported to help mitigate the progression of AKI.[5] ...

AKI mice [1] = test: survival of AKI mice; assay type: in vivo, mouse; details: n = 10 per group
Description: (§1) Aristolochic acid I sodium salt was dissolved in PBS to 1 mg/mL and injected intraperitoneally at a dose of 10 mg/kg (body weight) every 24 h for 3 days; cisplatin was dissolved in PBS to 1.5 mg/mL for one-time intraperitoneal 25 mg/kg injection; LPS (Sigma, Cat#L2630) was dissolved in PBS to 2.5 mg/mL for one-time intraperitoneal 25 mg/kg injection; deoxyribonuclease I (DNase I, Sigma, Cat#SLBV1446) was dissolved in PBS to 1 mg/mL and injected intraperitoneally at a dose of 10 mg/kg at 4 h before cisplatin or AA I injection and every 24 h after injection. Disulfiram (MedChemExpress, CAS:97-77-8) was diluted in corn oil to 12.5 mg/mL and injected 50 mg/kg intraperitoneally every 24 h after cisplatin or AA I administration. Cu(II) (Sigma, Cat#344419) was dissolved in PBS to 30 µg/mL and administered intraperitoneally 6 h before disulfiram at a dose of 0.15 mg/kg; TNF-α (Peprotech, Cat#315-01 A) was dissolved in PBS to 10 µg/mL and injected at 100 µg/kg once through the caudal vein 24 h before cisplatin injection. Metformin (Sigma, Cat#D150959) was dissolved in PBS to 5 mg/mL and injected intraperitoneally at a dose of 50 mg/kg 24 h before cisplatin or AA I injection and every 24 h after injection. MCC950 (MedChem Express, CAS:256373-96-3) was dissolved in PBS to 5 mg/mL and injected intraperitoneally at a dose of 50 mg/kg 12 h before cisplatin or AA I injection and every 12 h after injection; berberine (APExBIO, Cat#N1368) was dissolved in PBS to 5 mg/mL and 5 mg/kg injected intraperitoneally at 36, 24 and 12 h before cisplatin; A20-derived-peptide was dissolved in ddH2O to 3 mg/mL and injected intraperitoneally at a dose of 15 mg/kg 1 h before cisplatin. To supervise the effects of various treatments on survival time and rate, the mice were observed, and survival curves were generated. To investigate the specific mechanisms, whole blood was retrieved from the orbit, serum was separated through centrifugation on the 4th day, and the mice were then sacrificed by cervical dislocation. Mice were randomly assigned in experiments, while there was no blinding during the animal experiments.

AKI mice [2] = test: serum creatinine of AKI mice; assay type: in vivo, mouse
Description: (§2) LPS (Sigma, Cat#L2630) was dissolved in PBS to 2.5 mg/mL for one-time intraperitoneal 25 mg/kg injection; deoxyribonuclease I (DNase I, Sigma, Cat#SLBV1446) was dissolved in PBS to 1 mg/mL and injected intraperitoneally at a dose of 10 mg/kg at 4 h before cisplatin or AA I injection and every 24 h after injection. Disulfiram (MedChemExpress, CAS:97-77-8) was diluted in corn oil to 12.5 mg/mL and injected 50 mg/kg intraperitoneally every 24 h after cisplatin or AA I administration. Cu(II) (Sigma, Cat#344419) was dissolved in PBS to 30 µg/mL and administered intraperitoneally 6 h before disulfiram at a dose of 0.15 mg/kg; TNF-α (Peprotech, Cat#315-01 A) was dissolved in PBS to 10 µg/mL and injected at 100 µg/kg once through the caudal vein 24 h before cisplatin injection. […] MCC950 (MedChem Express, CAS:256373-96-3) was dissolved in PBS to 5 mg/mL and injected intraperitoneally at a dose of 50 mg/kg 12 h before cisplatin or AA I injection and every 12 h after injection; berberine (APExBIO, Cat#N1368) was dissolved in PBS to 5 mg/mL and 5 mg/kg injected intraperitoneally at 36, 24 and 12 h before cisplatin; […] To supervise the effects of various treatments on survival time and rate, the mice were observed, and survival curves were generated. To investigate the specific mechanisms, whole blood was retrieved from the orbit, serum was separated through centrifugation on the 4th day, and the mice were then sacrificed by cervical dislocation. Mice were randomly assigned in experiments, while there was no blinding during the animal experiments. Renal function was evaluated based on serum creatinine level and histological features. Serum creatinine was determined in the Clinical Pharmacology Lab, Clinical Trial Center, WCH, SCU. The kidneys were extracted from euthanized mice, immediately fixed with 4% paraformaldehyde, and embedded in paraffin. Furthermore, the samples were cut into 5 µm thick sections. These tissue samples were subjected to hematoxylin-eosin (HE) and […] according to standard protocols with HE reagent (Biosharp, Cat#BL702B, BL703B) and Masson reagent (Servicebio, Cat#G1006-100ML). The pathological changes were detected through optical microscopy, and the tubulointerstitial injury score was determined as previously reported.

AKI mice [3] = test: tubular injury / renal injury of AKI mice (HE histology); assay type: in vivo, mouse
Description: as §2

AKI mice [4] = test: renal fibrosis of AKI mice (Masson staining); assay type: in vivo, mouse; details: Cis mice; metformin 50 mg/kg i.p. 24 h before and every 24 h after; n = 5
Description: LPS (Sigma, Cat#L2630) was dissolved in PBS to 2.5 mg/mL for one-time intraperitoneal 25 mg/kg injection; deoxyribonuclease I (DNase I, Sigma, Cat#SLBV1446) was dissolved in PBS to 1 mg/mL and injected intraperitoneally at a dose of 10 mg/kg at 4 h before cisplatin or AA I injection and every 24 h after injection. Disulfiram (MedChemExpress, CAS:97-77-8) was diluted in corn oil to 12.5 mg/mL and injected 50 mg/kg intraperitoneally every 24 h after cisplatin or AA I administration. Cu(II) (Sigma, Cat#344419) was dissolved in PBS to 30 µg/mL and administered intraperitoneally 6 h before disulfiram at a dose of 0.15 mg/kg; TNF-α (Peprotech, Cat#315-01 A) was dissolved in PBS to 10 µg/mL and injected at 100 µg/kg once through the caudal vein 24 h before cisplatin injection. […] Renal function was evaluated based on serum creatinine level and histological features. Serum creatinine was determined in the Clinical Pharmacology Lab, Clinical Trial Center, WCH, SCU. […] The pathological changes were detected through optical microscopy, and the tubulointerstitial injury score was determined as previously reported.

NEK7 [5] = test: NEK7 expression in iBMDMs (immunoblot); assay type: cell-based, mouse; details: LPS plus metformin 0, 1, 2 or 5 mM, Fig. 9a
Description: For immunoblot analysis of kidney tissue, total protein lysates were prepared from renal tissue, which was ground in liquid nitrogen and then added to lysis buffer in a Total Protein Extraction Kit (Signalway Antibody, Cat#PE001). Samples were centrifuged at 12,000 rpm for 15 min at 4 °C, and the supernatant was collected immediately. For immunoblot analysis of cells, cultured cells after treatment were lysed with lysis buffer, which was premixed with protease and phosphatase inhibitors (Signalway Antibody, Cat#PE001). The samples were centrifuged at 12,000 r/min for 15 min at 4 °C, and the supernatant was collected immediately. Ultimately, both types of protein samples were then mixed with 4× Laemmli loading buffer (Bio-Rad, Cat#1610747) and denatured by boiling at 95 °C for 5 min.
(§3) Prepared protein samples were subjected to 6-15% SDS polyacrylamide gels and separated according to the protein concentrations. Then, the protein bands were transferred to polyvinylidene difluoride (PVDF) membranes by a wet transfer apparatus (Bio-Rad, USA). […] The protein bands were detected with an enhanced chemiluminescence kit (Millipore, Cat#WBKLS0500) using a gel imaging system (Bio-Rad, USA) for visualization and standardization of the amount of protein loaded. α-Tubulin was used as the internal control.

NEK7 [6] = test: NEK7 expression in renal tissue of mice (immunoblot); assay type: in vivo, mouse; details: Cis mice, metformin 50 mg/kg i.p., Fig. 9b
Description: For immunoblot analysis of kidney tissue, total protein lysates were prepared from renal tissue, which was ground in liquid nitrogen and then added to lysis buffer in a Total Protein Extraction Kit (Signalway Antibody, Cat#PE001). Samples were centrifuged at 12,000 rpm for 15 min at 4 °C, and the supernatant was collected immediately. […] Ultimately, both types of protein samples were then mixed with 4× Laemmli loading buffer (Bio-Rad, Cat#1610747) and denatured by boiling at 95 °C for 5 min.
Prepared protein samples were subjected to 6-15% SDS polyacrylamide gels and separated according to the protein concentrations. Then, the protein bands were transferred to polyvinylidene difluoride (PVDF) membranes by a wet transfer apparatus (Bio-Rad, USA). […] The protein bands were detected with an enhanced chemiluminescence kit (Millipore, Cat#WBKLS0500) using a gel imaging system (Bio-Rad, USA) for visualization and standardization of the amount of protein loaded. α-Tubulin was used as the internal control. […]

NEK7 [7] = details: low dose; cited from earlier work
From the text: Furthermore, we investigated the potential therapeutic medicines targeting to NEK7 and evaluated their effects on alleviating AKI. […] A ...

AKI mice [8] = test: overall therapeutic effect in AKI mice; assay type: in vivo, mouse; details: TNF-α vs Anc80L65 (A20 overexpression)
Description: as §1

BMDMs = test: pyroptotic induction of BMDMs by ox-DNA or LPS plus ATP (immunoblot of GSDMD); assay type: cell-based, mouse; details: BMDMs pretreated with low-dose TNF-α before ox-dsDNA90 or LPS plus ATP; Fig. 6l
Description: Primary bone marrow-derived macrophages (BMDMs) were isolated from 6- to 8-week-old C57BL/6J male mice. The mice were sacrificed and soaked in 75% alcohol for 1–2 min. The femurs and tibias were removed and immersed in PBS containing 500 U/mL penicillin and […] streptomycin for 3 min. The marrow cavities were repeatedly rinsed with DMEM using a sterile 1 mL syringe. The cell suspension was collected and centrifuged at 300 × g for 10 min, and the supernatant was discarded. The cell pellet was resuspended in 5 mL red cell lysis buffer (Bio Sharp, Cat#BL503A) on ice for 5 min, followed by centrifugation, and the supernatant was removed. The cells were then resuspended in DMEM complete culture medium supplemented with 10% FBS and 30% L929 cell-conditioned medium as an induction factor.[51] Half of the medium was changed every other day for 5–7 days. The suspended cells were removed, and the adherent BMDMs were digested with trypsin and plated on a six-well plate at a density of 1 × 10^6 cells/well. […]
as §3, with “concentrations.” for “concentrations. Then, the protein bands were transferred to polyvinylidene difluoride (PVDF) membranes by a wet transfer apparatus (Bio-Rad, USA).”

[9] = Cis mice, metformin 50 mg/kg i.p. 24 h before and every 24 h after
[10] = Cis or AA I mice, TNF-α 100 µg/kg pre-injection

In the case of `N.N.[Cl][Pt][Cl]` [cisplatin], the “patients developing AKI after first course of treatment” value (patients) is listed as “Approximately 13%”.
With `CN(C)C(=N)N=C(N)N` [metformin, Metformin] the survival (AKI mice [1]; [9]) was “longer survival time and better survival rate”, the “serum creatinine (in words)” value (AKI mice [2]; [9]) was “markedly ameliorated cisplatin-induced serum creatines” and the “tubular injury (in words)” value (AKI mice [3]; [9]) was “markedly ameliorated cisplatin-induced serum creatines, tubular injury”. The renal fibrosis (AKI mice [4]) was “markedly ameliorated cisplatin-induced serum creatines, tubular injury, renal fibrosis”, the “NEK7 expression in vitro” value (NEK7 [5]) was “downregulates NEK7” and the “NEK7 expression in vivo” value (NEK7 [6]) was “downregulates NEK7”. The “NEK7 expression (literature)” value (NEK7 [7]) was “limit the expression of NEK7 to alleviate inflammation”.
For TNF-α, the survival (AKI mice [1]; Cis or AA I mice, TNF-α 100 µg/kg once through the caudal vein 24 h before) was “extended overall survival benefit”, the “serum creatinine (in words)” value (AKI mice [2]; [10]) was “alleviated serum creatinine” and the “tubular injury (in words)” value (AKI mice [3]; [10]) was “alleviated serum creatinine and tubular injury”. The “alleviation of AKI compared with Anc80L65” value (AKI mice [8]) was “more efficient in alleviating AKI” and the “resistance of BMDMs to pyroptotic induction” value (BMDMs) was “more resistant to pyroptotic induction”.
